Consider four compounds from patent US11597724B2, “Herbicidally active 3-phenylisoxazoline-5-carboxamides of tetrahydro and dihydrofuran carboxylic acids and esters” (Bayer Aktiengesellschaft, priority 2017, dated 2023).

What all share (format): in vivo
For one experiment, the system named is Amaranthus retroflexus. As to the kind of experiment: Pre-emergence herbicidal activity against AMARE. The settings on record: dosage 80 g/ha; for pest or weed control at 80 g/ha: Amaranthus retroflexus, 504 h. Summed up:
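Seeds sown in pots, covered with soil; WP or EC formulations sprayed onto soil surface as aqueous suspension/emulsion with 0.5% additive at 600 l/ha water. Pots kept in greenhouse ~3 weeks, then effect scored visually versus untreated controls as % (100% = plants dead, 0% = like control).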

The next experiment deals with Alopecurus myosuroides. The experiment is described as follows: Pre-emergence herbicidal activity against ALOMY. The settings on record: dosage 80 g/ha, scored visually after about 3 weeks vs untreated controls (100% = plants have died, 0% = like control plants); for pest or weed control at 80 g/ha: Alopecurus myosuroides, 504 h. Summed up: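 Seeds sown in pots and covered with soil; WP or EC formulations applied to the soil surface pre-emergence as aqueous suspension/emulsion with 0.5% additive at 600 l/ha water. Kept in greenhouse about 3 weeks, then effect scored visually as % versus untreated controls (100% = plants died, 0% = like control).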

Experiment [1] deals with Setaria viridis. As to the kind of experiment: Post-emergence herbicidal activity against SETVI. Particulars: dosage 320 g/ha, rated about 3 weeks after treatment; for pest or weed control at 320 g/ha: Setaria viridis, 504 h. Summed up: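 Greenhouse weeds in sandy loam were sprayed at the one-leaf stage, 2–3 weeks after sowing, with WP or EC formulations plus 0.5% additive at 600 l/ha water. About 3 weeks later, damage was rated visually against untreated controls, where 100% means plants dead and 0% means like control.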

The test system of a further experiment is Echinochloa crus-galli. The experiment is described as follows: Post-emergence herbicidal activity against ECHCG. The settings on record: dosage 320 g/ha, rated about 3 weeks after treatment; for pest or weed control at 320 g/ha: Echinochloa crus-galli, 504 h. The essentials: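 Greenhouse pot plants sprayed post-emergence at one-leaf stage (2-3 weeks after sowing) with WP or EC formulations, 0.5% additive, 600 l/ha water. Visual rating about 3 weeks later versus untreated controls: 100% = plants dead, 0% = like control.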

Experiment [2] has as its system Setaria viridis. As to the kind of experiment: Pre-emergence herbicidal activity against SETVI. Particulars: dosage 80 g/ha; for pest or weed control at 80 g/ha: Setaria viridis, 504 h. The text has this:
1. Pre-Emergence Herbicidal Action and Crop Plant Compatibility Seeds of monocotyledonous and dicotyledonous weed plants and crop plants are placed in plastic or wood fiber pots and covered with soil. The compounds of the invention, formulated in the form of wettable powders (WP) or as emulsion concentrates (EC), are then applied onto the surface of the covering soil as aqueous suspension or emulsion with addition of 0.5% additive at a water application rate of 600 l/ha (converted). After the treatment, the pots are placed in a greenhouse and kept under good growth conditions for the trial plants. After about 3 weeks, the effect of the preparations is scored visually in comparison with untreated controls as percentages. For example, 100% activity=the plants have died, 0% activity=like control plants. POLCO: Polygonum convolvulus SETVI: Setaria viridis

The subject of experiment [3] is Veronica persica. The experiment is described as follows: Pre-emergence herbicidal activity against VERPE. Particulars: dosage 80 g/ha; for pest or weed control at 80 g/ha: Veronica persica, 504 h. Summed up: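 Weed seeds sown in pots and covered with soil, then WP or EC formulations sprayed onto the soil surface as aqueous suspension/emulsion with 0.5% additive at 600 l/ha water. Kept in greenhouse; visual percent effect versus untreated controls scored after about 3 weeks (100% = plants dead).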

Experiment [4] has as its system Veronica persica. As to the kind of experiment: Post-emergence herbicidal activity against VERPE. Particulars: dosage 320 g/ha; for pest or weed control at 320 g/ha: Veronica persica, 504 h. Summed up:
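Greenhouse plants treated at one-leaf stage, 2–3 weeks after sowing, by spraying WP or EC formulations with 0.5% additive at 600 l/ha water. Visual rating about 3 weeks later versus untreated controls (100% = plants dead, 0% = like controls).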

By pest or weed control is commonly meant the degree to which the test organism was suppressed or injured, in per cent. Low readings indicate weak suppression, high ones strong suppression. For the compound `C=CC1(C(=O)N[C@H]2CO[C@@H](C(=O)O)C2)CC(c2cc(F)cc(F)c2)=NO1` (relative stereo) [I-21, cis-4-[[3-(3,5-difluorophenyl)-5-vinyl-4H-isoxazole-5-carbonyl]amino]tetrahydrofuran-2-carboxylic acid], the pest or weed control at 80 g/ha was 100% with Amaranthus retroflexus, 100% in the experiment on Alopecurus myosuroides, 90% in the experiment on Setaria viridis [2] and 100% with Veronica persica [3]. For the same compound, the pest or weed control at 320 g/ha in the experiment with Setaria viridis [1] was determined as 80%; with Echinochloa crus-galli it was 80%; with Veronica persica [4] it was 100%.

With `CCOC(=O)C1CC(NC(=O)C2(C)CC(c3cc(F)cc(F)c3)=NO2)CO1` (mixture of isomers) [I-43], in the experiment on Amaranthus retroflexus, the “Pre-emergence herbicidal activity against AMARE in %” value is 90%. Also, the “Pre-emergence herbicidal activity against ALOMY in %” value in the experiment with Alopecurus myosuroides was found to be 100%. Further, the “Post-emergence herbicidal activity against SETVI in %” value in the experiment with Setaria viridis [1] amounted to 80%. Besides, the “Post-emergence herbicidal activity against ECHCG in %” value with Echinochloa crus-galli was determined as 100%. Further, the “Pre-emergence herbicidal activity against SETVI in %” value in the experiment on Setaria viridis [2] was 100%. The “Pre-emergence herbicidal activity against VERPE in %” value in the experiment with Veronica persica [3] amounted to 90%. Also, the “Post-emergence herbicidal activity against VERPE in %” value with Veronica persica [4] was found to be 90%.

Take `C=C[C@]1(C(=O)NC2COCC2C(=O)OC)CC(c2cc(F)cc(F)c2)=NO1` (stereo partly drawn) [I-26, methyl 4-[[(5S)-3-(3,5-difluorophenyl)-5-vinyl-4H-isoxazole-5-carbonyl]amino]tetrahydrofuran-3-carboxylate]: the pest or weed control at 80 g/ha with Amaranthus retroflexus, with Alopecurus myosuroides, in the experiment with Setaria viridis [2] and with Veronica persica [3] was 100% each time. The results for the pest or weed control at 320 g/ha with Setaria viridis [1], in the experiment on Echinochloa crus-galli and with Veronica persica [4] were 80%, 90% and 90%, respectively.

Take `COC(=O)C1CC(NC(=O)C2(C)CC(c3cc(F)cc(F)c3)=NO2)CO1` (mixture of isomers) [I-48]: in the experiment on Amaranthus retroflexus, the “Pre-emergence herbicidal activity against AMARE in %” value is on record as 100%. The “Pre-emergence herbicidal activity against ALOMY in %” value in the experiment with Alopecurus myosuroides worked out at 100%. In addition, in the experiment with Setaria viridis [1], the “Post-emergence herbicidal activity against SETVI in %” value came out at 80%. Besides, in the experiment on Echinochloa crus-galli, the “Post-emergence herbicidal activity against ECHCG in %” value is listed as 90%. In the experiment on Setaria viridis [2], the “Pre-emergence herbicidal activity against SETVI in %” value amounted to 100%. Besides, the “Pre-emergence herbicidal activity against VERPE in %” value in the experiment on Veronica persica [3] is 100%. Further, the “Post-emergence herbicidal activity against VERPE in %” value in the experiment on Veronica persica [4] is 80%.
